Assay results reported in US8686150B2 (Sanofi, priority 2011, dated 2014).

target: T1, human full-length recombinant PKC βII (Homo sapiens, UniProt P05771); test: Determination of PKC βII inhibition (Caliper mobility-shift kinase assay, Fluorescein-RFARKGSLRQKNV peptide substrate); format: biochemical; details: example compounds at a final concentration of 1.14 μM (±0.15 μM)
T1 construct: Active human full-length recombinant PKC βII; purchased Invitrogen GmbH, Darmstadt, Germany
Protocol: Determination of PKC βII Inhibition
PKC βII Inhibition was Determined According to the Following Protocol:
Active human full-length recombinant PKC βII and the peptide substrate, Fluorescein-RFARKGSLRQKNV, were purchased from Invitrogen GmbH, Darmstadt, Germany. Adenosine-5′-triphosphate (ATP), bovine serum albumine (BSA), dimethylsulphoxide (DMSO), 4-(2-hydroxyethyl)piperazine-1-ethanesulfonic acid (Hepes), Triton X-100, 1,2-Dioleoyl-sn-glycerol (DAG), L-G-Phosphatidyl-L-serine (PS), calcium chloride (CaCl2), and Pluronic F-68 were purchased from Sigma-Aldrich, Munich, Germany. Magnesium chloride, 1 M sodium hydroxide solution, 1M hydrochloric acid solution and EDTA were obtained from Merck Biosciences, Darmstadt, Germany.
Test compounds were diluted to three times the test concentration in buffer 1 (30 mM Hepes-NaOH, pH 7.4, 0.01% Pluronic F-68 and 3% (v/v) DMSO). The PKC enzyme was diluted to a concentration of 30 ng/ml in buffer 2 (30 mM Hepes-NaOH, pH 7.4, 15 mM MgCl2, 150 μM CaCl2, 150 μg/ml PS, 60 μg/ml DAG, and 0.045% (w/v) Triton X-100). The peptide substrate and ATP were diluted to concentrations of 3 μM and 120 μM, respectively, in buffer 2. Two μl of the compound solution were mixed with 2 μl of the diluted enzyme in a 384-well small volume microtiter plate (Greiner, Bio-One, Frickenhausen, Germany), and the kinase reaction was initiated by addition of 2 μl of the solution containing peptide substrate and ATP. After 60 min incubation at 32° C., the reaction was stopped by addition of 20 μl of a solution containing 130 mM Hepes-NaOH, pH 7.4. 0.0195% (v/v) Brij-35, 6.5 mM EDTA. 0.13% chip coating reagent 3 (Caliper Lifescience Inc, Hopkinton, Mass.) and 6.5% (v/v) DMSO. Phosphorylation of the substrate peptide was then detected on a Caliper 3000 instrument essentially as described by Pommereau et al (J. Biomol. Screening 2004, 9(5), 409-416). Separation conditions were as follows: Pressure −0.8 psi, upstream voltage −3000 V, downstream voltage −800 V. Positive controls (buffer 1 instead of compound) and negative controls (buffer 1 instead of compound and buffer 2 instead of kinase solution) were run in parallel on each plate. Fractional turnover (R) was determined as the height of the peak of the phosphorylated peptide product divided by the sum of the unphosphorylated substrate and phosphorylated product peak heights. Percent-inhibition values for the test compounds were determined using the formula % Inhibition=100*(1−(Rcompound−Rnegative control)/(Rpositive control−Rnegative control).
In the following table % inhibition values observed with example compounds at a final concentration of 1.14 μM (±0.15 μM) are listed: […]

T1 sequence (P05771 1-673 isoform P05771-2): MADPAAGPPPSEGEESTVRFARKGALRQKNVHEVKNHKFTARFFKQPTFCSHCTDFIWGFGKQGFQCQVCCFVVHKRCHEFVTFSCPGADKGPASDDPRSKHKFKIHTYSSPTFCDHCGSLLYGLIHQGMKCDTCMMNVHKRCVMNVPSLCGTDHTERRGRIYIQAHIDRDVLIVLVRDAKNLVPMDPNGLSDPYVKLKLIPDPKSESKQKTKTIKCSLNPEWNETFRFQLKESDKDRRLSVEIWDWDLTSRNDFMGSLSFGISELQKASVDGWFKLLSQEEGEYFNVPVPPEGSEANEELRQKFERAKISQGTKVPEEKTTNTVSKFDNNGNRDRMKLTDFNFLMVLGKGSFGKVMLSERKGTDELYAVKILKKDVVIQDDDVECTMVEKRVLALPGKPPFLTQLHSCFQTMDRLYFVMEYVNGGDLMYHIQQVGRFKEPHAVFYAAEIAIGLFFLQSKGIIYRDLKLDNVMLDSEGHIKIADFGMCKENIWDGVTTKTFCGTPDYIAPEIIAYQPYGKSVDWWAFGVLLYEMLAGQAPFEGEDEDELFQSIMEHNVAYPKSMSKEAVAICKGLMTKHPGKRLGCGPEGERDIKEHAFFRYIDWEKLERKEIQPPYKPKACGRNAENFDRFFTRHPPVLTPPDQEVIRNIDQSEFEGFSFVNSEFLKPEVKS

inhibition at 1.14 µM [%] | SMILES
60 | Cc1n[nH]c2nc(-c3ccc(O)c(F)c3)cc(C(=O)NC3CCCN(C)C3)c12 (stereo not drawn) [Example 355, 6-(3-Fluoro-4-hydroxy-phenyl)-3-methyl-1H-pyrazolo[3,4-b]pyridine-4-carboxylic acid (1-methyl-piperidin-3-yl)-amide]
81 | Cc1n[nH]c2nc(-c3ccc(O)c(F)c3)cc(C(=O)NC3CCCNC3)c12 (stereo not drawn) [Example 349, 6-(3-Fluoro-4-hydroxy-phenyl)-3-methyl-1H-pyrazolo[3,4-b]pyridine-4-carboxylic acid piperidin-3-ylamide]
59 | Cc1n[nH]c2nc(-c3ccc(O)c(F)c3)cc(C(=O)N[C@H]3C[C@@H]3N)c12 (racemic) [Example 307, 6-(3-Fluoro-4-hydroxy-phenyl)-3-methyl-1H-pyrazolo[3,4-b]pyridine-4-carboxylic acid (trans-2-amino-cyclopropyl)-amide]
72 | Cc1n[nH]c2nc(-c3ccc(O)c(F)c3)cc(C(=O)NCC(C)(C)CN)c12 [Example 363, 6-(3-Fluoro-4-hydroxy-phenyl)-3-methyl-1H-pyrazolo[3,4-b]pyridine-4-carboxylic acid (3-amino-2,2-dimethyl-propyl)-amide]
45 | Cc1n[nH]c2nc(-c3ccc(O)c(F)c3)cc(C(=O)N3CC4(CCNCC4)c4ccccc43)c12 [Example 330, (1,2-Dihydro-5-spiro[3H-indole-3,4′-piperidin]-1-yl)-[6-(3-fluoro-4-hydroxy-phenyl)-3-methyl-1H-pyrazolo[3,4-b]pyridin-4-yl]-methanone]
51 | Cc1n[nH]c2nc(-c3ccc(O)cc3F)cc(C(=O)N3CCNC(c4ccccc4)C3)c12 (stereo not drawn) [Example 421, [6-(2-Fluoro-4-hydroxy-phenyl)-3-methyl-1H-pyrazolo[3,4-b]pyridin-4-yl]-(3-phenyl-piperazin-1-yl)-methanone]
89 | Cc1n[nH]c2nc(-c3ccc(O)cc3)cc(C(=O)NC3CCCN(C)C3)c12 (stereo not drawn) [Example 275, 6-(4-Hydroxy-phenyl)-3-methyl-1H-pyrazolo[3,4-b]pyridine-4-carboxylic acid (1-methyl-piperidin-3-yl)-amide]
78 | Cc1n[nH]c2nc(-c3ccc(O)cc3)cc(C(=O)N3CCC4(CCNCC4)C3)c12 [Example 260, (2,8-Diaza-spiro[4.5]dec-2-yl)-[6-(4-hydroxy-phenyl)-3-methyl-1H-pyrazolo[3,4-b]pyridin-4-yl]-methanone]
88 | Cc1n[nH]c2nc(-c3ccc(O)c(F)c3)cc(C(=O)N3CCN[C@@H](CC(C)C)C3)c12 [Example 351, [6-(3-Fluoro-4-hydroxy-phenyl)-3-methyl-1H-pyrazolo[3,4-b]pyridin-4-yl]-((S)-3-isobutyl-piperazin-1-yl)-methanone]
99 | Cc1n[nH]c2nc(-c3ccc(O)cc3F)cc(C(=O)N3CC(C)(C)NCC3C)c12 (stereo not drawn) [Example 427, [6-(2-Fluoro-4-hydroxy-phenyl)-3-methyl-1H-pyrazolo[3,4-b]pyridin-4-yl]-(2,5,5-trimethyl-piperazin-1-yl)-methanone]
74 | Cc1n[nH]c2nc(-c3ccc(O)c(F)c3)cc(C(=O)N[C@@H]3[C@H]4CC[C@H](C4)[C@H]3CN)c12 (stereo in doubt) [Example 311, 6-(3-Fluoro-4-hydroxy-phenyl)-3-methyl-1H-pyrazolo[3,4-b]pyridine-4-carboxylic acid (3-aminomethyl-bicyclo[2.2.1]hept-2-yl)-amide]
39 | Cc1n[nH]c2nc(-c3ccc(O)cc3)cc(C(=O)NC3CCC(N(C)C)CC3)c12 (stereo not drawn) [Example 396, 6-(4-Hydroxy-phenyl)-3-methyl-1H-pyrazolo[3,4-b]pyridine-4-carboxylic acid (4-dimethylamino-cyclohexyl)-amide]

Continued, compound first:

SMILES | inhibition at 1.14 µM [%]
Cc1n[nH]c2nc(-c3ccc(O)cc3)cc(C(=O)N[C@@H]3CCCC[C@@H]3N)c12 (relative stereo) [Example 126, 6-(4-Hydroxy-phenyl)-3-methyl-1H-pyrazolo[3,4-b]pyridine-4-carboxylic acid (cis-2-amino-cyclohexyl)-amide] | 48
CCc1n[nH]c2nc(-c3ccc(O)cc3)cc(C(=O)N3CC[C@@H](N(C)C)C3)c12 [Example 176, ((R)-3-Dimethylamino-pyrrolidin-1-yl)-[3-ethyl-6-(4-hydroxy-phenyl)-1H-pyrazolo[3,4-b]pyridin-4-yl]-methanone] | 40
CCc1n[nH]c2nc(-c3ccc(O)cc3)cc(C(=O)N[C@H]3CNC[C@@H]3OC)c12 [Example 161, 3-Ethyl-6-(4-hydroxy-phenyl)-1H-pyrazolo[3,4-b]pyridine-4-carboxylic acid ((3S,4S)-4-methoxy-pyrrolidin-3-yl)-amide] | 77
Cc1n[nH]c2nc(-c3ccc(O)cc3)cc(C(=O)N3CC4(CCNCC4)c4ccccc43)c12 [Example 237] | 59
Cc1n[nH]c2nc(-c3ccc(O)cc3)cc(C(=O)NC3CN4CCC3CC4)c12 (stereo not drawn) [Example 207, 6-(4-Hydroxy-phenyl)-3-methyl-1H-pyrazolo[3,4-b]pyridine-4-carboxylic acid (1-aza-bicyclo[2.2.2]oct-3-yl)-amide] | 94
Cc1n[nH]c2nc(-c3ccc(O)cc3)cc(C(=O)N3CCC(CN)(c4ccccc4)CC3)c12 [Example 34, (4-Aminomethyl-4-phenyl-piperidin-1-yl)-[6-(4-hydroxy-phenyl)-3-methyl-1H-pyrazolo[3,4-b]pyridin-4-yl]-methanone] | 69
CCc1n[nH]c2nc(-c3ccc(O)cc3)cc(C(=O)N3CCC4CNCC43)c12 (stereo not drawn) [Example 167, [3-Ethyl-6-(4-hydroxy-phenyl)-1H-pyrazolo[3,4-b]pyridin-4-yl]-(hexahydro-pyrrolo[3,4-b]pyrrol-1-yl)-methanone] | 58
Cc1n[nH]c2nc(-c3ccc(O)cc3)cc(C(=O)NCCN(C)C)c12 [Example 38, 6-(4-Hydroxy-phenyl)-3-methyl-1H-pyrazolo[3,4-b]pyridine-4-carboxylic acid (2-dimethylamino-ethyl)-amide] | 80
Cc1n[nH]c2nc(-c3ccc(O)cc3)cc(C(=O)N3CCC4(CNCCO4)C3)c12 (stereo not drawn) [Example 253, [6-(4-Hydroxy-phenyl)-3-methyl-1H-pyrazolo[3,4-b]pyridin-4-yl]-(6-oxa-2,9-diaza-spiro[4.5]dec-2-yl)-methanone] | 73
Cc1n[nH]c2nc(-c3ccc(O)cc3)cc(C(=O)N3CCCC(N)C3)c12 (stereo not drawn) [Example 76, (3-Amino-piperidin-1-yl)-[6-(4-hydroxy-phenyl)-3-methyl-1H-pyrazolo[3,4-b]pyridin-4-yl]-methanone] | 88
Cc1n[nH]c2nc(-c3ccc(O)cc3F)cc(C(=O)N3CCNC[C@H]3c3ccccc3)c12 [Example 57, [6-(2-Fluoro-4-hydroxy-phenyl)-3-methyl-1H-pyrazolo[3,4-b]pyridin-4-yl]-((R)-2-phenyl-piperazin-1-yl)-methanone] | 99
Cc1n[nH]c2nc(-c3ccc(O)cc3)cc(C(=O)N3CCNCC3c3cccc(F)c3)c12 (stereo not drawn) [Example 91, [2-(3-Fluoro-phenyl)-piperazin-1-yl]-[6-(4-hydroxy-phenyl)-3-methyl-1H-pyrazolo[3,4-b]pyridin-4-yl]-methanone] | 93
Cc1cc(O)ccc1-c1cc(C(=O)N2CCNCC2)c2c(C)n[nH]c2n1 [Example 13, [6-(4-Hydroxy-2-methyl-phenyl)-3-methyl-1H-pyrazolo[3,4-b]pyridin-4-yl]-piperazin-1-yl-methanone] | 96
Cc1n[nH]c2nc(-c3ccc(O)cc3)cc(C(=O)N3CCNCC3Cc3ccccc3)c12 (stereo not drawn) [Example 217, (2-Benzyl-piperazin-1-yl)-[6-(4-hydroxy-phenyl)-3-methyl-1H-pyrazolo[3,4-b]pyridin-4-yl]-methanone] | 93
CCC1(NC(=O)c2cc(-c3ccc(O)cc3)nc3[nH]nc(C)c23)CCNCC1 [Example 49, 6-(4-Hydroxy-phenyl)-3-methyl-1H-pyrazolo[3,4-b]pyridine-4-carboxylic acid (4-ethyl-piperidin-4-yl)-amide] | 97
